# Earlier results in US20140314729A1, “NUTRACEUTICAL FORMULATION FOR TREATMENT OF ELEVATED CHOLESTEROL AND CARDIOVASCULAR DISEASE” (Creative Medical Health Inc., priority 2013, published 2014).
# Columns and labels:
# mouse model = details: 150 mg/kg body weight for 10 days
# volunteers = details: 1.6 mg daily, 42-day period
# HIV-positive subjects = details: 1000 µg/day for eight weeks
# [1] = tested on: streptozotocin-treated rats; details: 80 μg/kg body weight daily for two weeks; P<0.001
# [2] = tested on: patients with type 2 diabetes; details: oral 200 mg/day for 12 weeks
compound,measurement,setting,value
CC(C)(COP(=O)(O)O)[C@@H](O)C(=O)NCCC(=O)O [phosphopantothenate],"content of triglycerides, total cholesterol and cholesterol esters in serum and adipose tissue",mouse model,decreased
chromium picolinate,decrease in LDL cholesterol,volunteers,10.5%
same,decrease in total cholesterol,volunteers,7%
same,LDL cholesterol after treatment,volunteers; from 200,178 mg per dl
same,total cholesterol after treatment,volunteers; from 276,256 mg per dl
same,increase of mean rate of glucose disposal,HIV-positive subjects,25%
same,mean rate of glucose disposal after treatment,"HIV-positive subjects; from 4.41, range 3.19-12.78, p=0.03",6.51 mg/kg LBM/min
same,average lowering of blood glucose compared with high-fat diet alone,[1],63%
same,lowering of total cholesterol compared with high-fat diet alone,[1],9.7%
same,lowering of triglycerides compared with high-fat diet alone,[1],6.6%
COC1=C(OC)C(=O)C(C/C=C(\C)CC/C=C(\C)CC/C=C(\C)CC/C=C(\C)CC/C=C(\C)CC/C=C(\C)CC/C=C(\C)CC/C=C(\C)CC/C=C(\C)CCC=C(C)C)=C(C)C1=O [coenzyme Q10],brachial artery flow-mediated dilation,[2],increased
